The text below walks through data of patent US5830905A, “Compounds, compositions and methods for treatment of hepatitis C” (Viropharma Incorporated, priority 1996, dated 1998).

pIC50: −log10 of the molar value.

The target of this test is viral helicase (Hepatitis C virus (isolate H77), UniProt P27958). The test can be described thus: Assay for Helicase Inhibition. The test is classed as biochemical, HCV. Particulars: average of three test results; read-out: IC50 (concentration required to achieve a 50% inhibition of helicase activity). The procedure: Anti-viral activity was measured on the basis of inhibition of helicase activity. The biological studies of the anti-viral activity of the compounds of the invention are described below.
Chain of viral helicase (P27958 1027-1657): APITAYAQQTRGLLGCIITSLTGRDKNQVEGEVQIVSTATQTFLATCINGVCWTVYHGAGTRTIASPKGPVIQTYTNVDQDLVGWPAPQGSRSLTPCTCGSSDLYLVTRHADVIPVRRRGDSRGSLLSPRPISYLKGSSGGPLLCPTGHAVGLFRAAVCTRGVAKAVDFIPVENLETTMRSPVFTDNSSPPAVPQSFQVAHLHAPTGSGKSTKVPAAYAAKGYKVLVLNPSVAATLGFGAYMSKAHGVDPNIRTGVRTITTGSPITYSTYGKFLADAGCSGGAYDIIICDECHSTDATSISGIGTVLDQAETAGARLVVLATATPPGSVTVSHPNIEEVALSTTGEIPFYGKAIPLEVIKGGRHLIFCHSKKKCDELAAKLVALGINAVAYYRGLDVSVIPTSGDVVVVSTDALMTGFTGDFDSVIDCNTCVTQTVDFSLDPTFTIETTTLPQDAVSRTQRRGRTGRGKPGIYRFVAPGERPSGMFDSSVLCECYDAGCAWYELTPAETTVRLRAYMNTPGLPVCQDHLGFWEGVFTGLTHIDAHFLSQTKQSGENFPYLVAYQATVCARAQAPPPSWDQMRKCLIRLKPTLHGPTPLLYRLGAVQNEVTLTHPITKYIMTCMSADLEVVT
Example 6 illustrates the efficacy of compounds of the invention in inhibiting the viral helicase activity.
Assay for Helicase Inhibition
The helicase inhibition assay was performed according to methodology of the type described, for example, in: Lain et al., Nucleic Acids Res. 18:7003-7006 (1991); Warrener et al., J. Virol. 69:1720-1726 (1995); Kim et al., Biochem. Biophys. Res. Comm. 214:160-166 (1995). The value given in Table 1 represent the average of three test results in which the concentrations of anti-viral compound required to achieve a 50% inhibition of helicase activity (IC50) were measured.

Turning to `c1cc(CN2CCC(C3=N[C@@H]4CCCC[C@H]4N3)CC2)ccc1CN1CCC(C2=N[C@@H]3CCCC[C@H]3N2)CC1` (relative stereo) [Example 3, 1,1'-[1,4-phenylenebis (methylene)]bis(4,4'-trans-(4,5,6,7,8,9-hexahydro)benzimidazoyl)piperidine], the pIC50 was 5.15.
